In article PMC4457840, “Differential Inhibition of Signal Peptide Peptidase Family Members by Established γ-Secretase Inhibitors” (PLoS ONE, 2015):

Target: T1, SPPL2a (Homo sapiens, UniProt Q8TCT8)
T1 construct: expressed in transfected cells; host or cells: HEK 293T
T1 sequence (Q8TCT8 26-520): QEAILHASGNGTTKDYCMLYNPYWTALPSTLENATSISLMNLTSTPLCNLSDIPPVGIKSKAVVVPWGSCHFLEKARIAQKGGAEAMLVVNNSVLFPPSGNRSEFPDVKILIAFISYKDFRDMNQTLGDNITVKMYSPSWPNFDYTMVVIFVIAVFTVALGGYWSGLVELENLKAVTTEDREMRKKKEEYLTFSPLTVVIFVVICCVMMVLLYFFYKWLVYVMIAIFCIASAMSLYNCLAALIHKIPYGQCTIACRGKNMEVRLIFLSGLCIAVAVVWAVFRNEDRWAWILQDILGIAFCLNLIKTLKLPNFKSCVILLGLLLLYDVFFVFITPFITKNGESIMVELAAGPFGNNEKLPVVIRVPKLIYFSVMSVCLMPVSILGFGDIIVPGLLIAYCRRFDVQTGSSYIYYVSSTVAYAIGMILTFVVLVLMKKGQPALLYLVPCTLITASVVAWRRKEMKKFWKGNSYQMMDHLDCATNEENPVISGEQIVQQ
Assay: FBA/SPPL2a co-transfected HEK 293T cell cleavage assay (Aβ ELISA, Western blot)
Assay type: cell-based
Conditions: overnight

`CC(C)C[C@H](NC(=O)OCc1ccccc1)C(=O)N[C@@H](CC(C)C)C(=O)NCC(=O)CNC(=O)[C@H](CC(C)C)NC(=O)[C@H](CC(C)C)NC(=O)OCc1ccccc1` [(Z-LL)2 ketone] gave an inhibition at 10 µM of over 75%.
